# Assay results: patent publication US4582821A, “Inhibition of cyclic nucleotide independent protein kinases” (E. I. Du Pont de Nemours and Company, priority 1983, dated 1986)
# Square brackets hold non-standard residues; d marks the D form. Peptide text beside a SMILES is read from it. * marks the point of attachment. ξ: configuration not given here. Cbz = O=C(OCc1ccccc1)*; ξL = CC(C)CC(N)C(=O)O; CH2Cl = ClC*
# Tests used:
# p130^fps = target: T1, p130^fps (UniProt P00530+P03323); test: Casein phosphorylation by p130fps immunoprecipitates; assay type: biochemical, Fujinami sarcoma virus (FSV); details: casein-phosphorylating activity of p130fps; concentration not given
# T1 construct: anti-gag serum and Staphylococcus protein A suspension (for FSV-transformed cells); viral gag-derived N-terminal portion (natural gag-fps fusion); expressed in transfected cells; immune complex with anti-gag serum and Staphylococcus protein A
# Description: In a related experiment, the capacity of Boc-LeuCH2 Br to inhibit phosphorylation of casein by p130^fps was determined. These tests were conducted substantially as described above, except 1 mg/mL casein was added to assay mixtures as a substrate, and reactions were terminated by addition of 2.5 mM unlabeled ATP and immediate cooling to 0°. Phosphorylated casein was separated from immunoprecipitate suspensions by centrifugation at 3,000 xg for 3 minutes. The resulting pellets were resuspended in 70 μL of 10 mM Hepes, pH 7.5, and 20 μL aliquots were pipetted onto filter paper squares as previously described. […]
# [1] = system: A-431 plasma membrane extracts (EGF-mediated protein phosphorylation); test: Protein phosphorylation in solubilized A-431 plasma membrane extracts, with or without EGF; assay type: biochemical, human
# Description: The capacity of certain peptide halomethyl ketones to inhibit protein phosphorylation is illustrated by Examples 1-8, below, in which solubilized plasma membranes prepared from A-431 human epidermoid carcinoma cells were incubated with [γ-^32 P] ATP in the presence of EGF.
# A-431 human epidermoid carcinoma cells were grown in Dulbecco's modified Eagle's medium containing 5% fetal calf serum. Plasma membranes were isolated by a method substantially similar to that described by Thom et al., Biochem J. 168:187 (1977), and kept at -70°. Solubilization of plasma membranes was performed substantially as described by Cohen et al., J. Biol. Chem. 255:4834 (1980). In this procedure, 7.5 mg/mL protein was solubilized with 5% Triton X-100 (octylphenol), 10% glycerol, and 20 mM Hepes buffer (N-2-hydroxyethylpiperazine-N^1 -2-ethanesulfonic acid), pH 7.4. This mixture was incubated for 20 minutes at about 23°, followed by centrifugation at 100,000 xg for 60 minutes.
# Protein phosphorylation assays were conducted substantially as described by Carpenter et al., J. Biol. Chem. 254:4884 (1979). Each assay mixture contained, in a final volume of 70 μL: 20 mM Hepes, pH 7.4, 0.01% bovine serum albumin (BSA), 15-150 μg protein in Triton extract, 100 ng EGF, 1 mM MnCl2 and 10-20 μM [γ-^32 P] ATP (2-4 μCi). Peptide halomethyl ketones were added as solutions in ethanol; an equivalent volume of ethanol was added to controls. Assay mixtures were incubated at about 23° for ten minutes, with or without added EGF. Mixtures were then held at 0° for ten minutes before initiation of phosphorylation by addition of 15 μM γ-^32 P) ATP (2 μCi). Reactions were terminated after 3 minutes at 0° by applying an aliquot of the assay mixture to a Whatman 3MM filter paper (2×2 cm), which was then suspended in ice-cold 10% trichloroacetic acid containing 10 mM pyrophosphate. This suspension was gently shaken for a period of 1 hour, during which the trichloroacetic acid/pyrophosphate mixture was changed three times. Finally, the filter papers were dried and radioactivity measured by scintillation counting.
# [2] = system: erythroleukemia cell line K-562; test: Tumor cell line growth inhibition, K-562; assay type: cell-based
# Description: (§1) In this series of experiments, the tumor cell growth inhibitory capacity of various peptide halomethyl ketones was tested against lymphoma cell lines YAC-1 and MOLT-4, and against an erythroleukemia cell line, K-562. The lymphoma cell line YAC-1 is described by Kiessling, et al., Eur. J. Immunol. 5:112 (1975), and MOLT-4 is described by Minowada, et al., J. Natl. Cancer Inst. 49:891 (1972) and Nilsson, et al., Int. J. Cancer 15:321 (1975). The erythroleukemia cell line K-562 is described by Lozzio, et al., Leuk. Res. 3:363 (1979). In these experiments, cells were grown on standard media as 10 mL suspension cultures. Initial cell density was 10^5 cells/mL. At day 0, test compounds were introduced in ethanol; control cultures received an equal volume of ethanol. Cells were counted at the times indicated.
# [3] = system: lymphoma cell line MOLT-4; test: Tumor cell line growth inhibition, MOLT-4; assay type: cell-based
# Description: as §1
# lymphoma cell line YAC-1 = test: Tumor cell line growth inhibition, YAC-1; assay type: cell-based
# Description: as §1
smiles,measurement,setting,value
CC(=O)NC(Cc1ccccc1)C(=O)NCC(=O)NC(CCC(=O)O)C(=O)NC(CC(C)C)C(=O)CCl (stereo not drawn) [Ac-Phe-Gly-Glu-LeuCH2 Cl] (Ac-FGEL-CH2Cl; configuration not given here),Percent Inhibition,p130^fps,0%
CC(=O)N[C@@H](Cc1ccccc1)C(=O)NCC(=O)N[C@@H](C)C(=O)N[C@@H](CC(C)C)C(=O)CCl [Ac-Phe-Gly-Ala-LeuCH2 Cl] (Ac-FGAL-CH2Cl),"% inhibition, EGF Added",[1]; 400 nmol/mg protein,59%
same,EGF Added (pmol 32P incorporated/min/mg protein),"[1]; 400 nmol/mg protein, control 20.2",8.3 pmol^32 P incorporated/min/mg
same,"% inhibition, No EGF Added","[1]; no EGF, 400 nmol/mg protein",29%
same,No EGF Added (pmol 32P incorporated/min/mg protein),"[1]; no EGF, 400 nmol/mg protein, control 7.3",5.2 pmol^32 P incorporated/min/mg
same,% Growth Relative to Control Cultures,"[2]; 0.4 μg/mL, day 1",81%
same,% Growth Relative to Control Cultures,"[2]; 0.4 μg/mL, day 3",85%
same,% Growth Relative to Control Cultures,"[2]; 0.4 μg/mL, day 7",84%
same,% Growth Relative to Control Cultures,"[2]; 2.0 μg/mL, day 4",79%
same,% Growth Relative to Control Cultures,"[2]; 10. μg/mL, day 2",77%
same,% Growth Relative to Control Cultures,"[2]; 10. μg/mL, day 3",87%
same,% Growth Relative to Control Cultures,"[2]; 10. μg/mL, day 7",47%
same,% Growth Relative to Control Cultures,"[3]; 0.4 μg/mL, day 1",50%
same,% Growth Relative to Control Cultures,"[3]; 0.4 μg/mL, day 4",72%
same,% Growth Relative to Control Cultures,"[3]; 0.4 μg/mL, day 7",66%
same,% Growth Relative to Control Cultures,"[3]; 2.0 μg/mL, day 4",87%
same,% Growth Relative to Control Cultures,"[3]; 10. μg/mL, day 7",88%
same,% Growth Relative to Control Cultures,"lymphoma cell line YAC-1; 0.4 μg/mL, day 1",80%
same,% Growth Relative to Control Cultures,"lymphoma cell line YAC-1; 0.4 μg/mL, day 2",91%
same,% Growth Relative to Control Cultures,"lymphoma cell line YAC-1; 10. μg/mL, day 1",78%
same,% Growth Relative to Control Cultures,"lymphoma cell line YAC-1; 10. μg/mL, day 2",59%
same,% Growth Relative to Control Cultures,"lymphoma cell line YAC-1; 10. μg/mL, day 3",43%
same,% Growth Relative to Control Cultures,"lymphoma cell line YAC-1; 10. μg/mL, day 4",24%
CC(C)C[C@H](NC(=O)[C@@H]1CCCN1C(=O)CNC(=O)[C@H](Cc1ccccc1)NC(=O)OCc1ccccc1)C(=O)CCl [Z--Phe-Gly-Pro-LeuCH2 Cl] (Cbz-FGPL-CH2Cl),Percent Inhibition,p130^fps,7%
"CC(C)C[C@H](NC(=O)[C@H](Cc1ccccc1)NC(=O)CNC(=O)[C@H](Cc1ccccc1)NC(=O)OCc1ccccc1)C(=O)CCl [Z--Phe-Gly-Phe-LeuCH2 Cl, Z-Phe-Gly-Phe-LeuCH2 Cl] (Cbz-FGFL-CH2Cl)",Percent Inhibition,p130^fps,34%
"CC(C)CC(NC(=O)C(CCCCN)NC(=O)CNC(=O)C(Cc1ccccc1)NC(=O)OCc1ccccc1)C(=O)CCl (stereo not drawn) [Z--Phe-Gly-Lys-LeuCH2 Cl, Z-Phe-Gly-Lys-LeuCH2 Cl] (Cbz-FGKL-CH2Cl; configuration not given here)",Percent Inhibition,p130^fps,48%
CC(C)C[C@H](NC(=O)[C@H](C)NC(=O)[C@H](Cc1ccccc1)NC(=O)[C@H](Cc1ccccc1)NC(=O)OCc1ccccc1)C(=O)CCl [Z--Phe-Phe-Ala-LeuCH2 Cl] (Cbz-FFAL-CH2Cl),Percent Inhibition,p130^fps,11%
"CC(C)CC(NC(=O)[C@H](C)NC(=O)[C@H](CC(C)C)NC(=O)[C@H](Cc1ccccc1)NC(=O)OCc1ccccc1)C(=O)CCl (stereo partly drawn) [Z--Phe-Leu-Ala-LeuCH2 Cl, Z-Phe-Leu-Ala-LeuCH2 Cl] (Cbz-FLA[ξL]-CH2Cl)",Percent Inhibition,p130^fps,36%
CC(C)[C@H](NC(=O)OC(C)(C)C)C(=O)CCl [Boc-ValCH2 Cl],"% inhibition, EGF Added",[1]; 477 nmol/mg protein,25%
same,EGF Added (pmol 32P incorporated/min/mg protein),"[1]; 477 nmol/mg protein, control 96.2",72.2 pmol^32 P incorporated/min/mg
same,No EGF Added (pmol 32P incorporated/min/mg protein),"[1]; no EGF, 477 nmol/mg protein, control 21.6",20.3 pmol^32 P incorporated/min/mg
